Reference: US9557338B2 (SIGNAL PHARMACEUTICALS, LLC, priority 2012, dated 2017)
Where two headings read alike, the source gives them in different places.

Key:
Type in all cases: cell-based
Phospho-p70S6K (T389) = assay: MSD assay, phospho-p70S6K (T389) in cell lysates; conditions: PC3 cell line; read-out: MSD p70S6K
Protocol: Determination of Phospho-p70S6K (T389) in Cell Lysates.
MSD® biomarker detection assays provide a rapid and convenient method for measuring the total and phosphorylated levels of protein targets within a single small-volume sample. In the assay, an antibody for a specific protein target is coated on one electrode (or spot) per well. The samples (cell lysates) are added to the well with a solution containing the detection antibody labeled with an electrochemiluminescent (ECL) compound, MSD SULFOTAG™ label, over the course of one or more incubation periods. The total protein present in the sample binds to the capture antibodies immobilized on the working electrode surface; recruitment of the labeled detection antibody by bound phospho-p70S6K completes the sandwich. MSD Read Buffer that provides the appropriate chemical environment for ECL is added and the plate is read using an MSD SECTOR™ Imager. Inside the SECTOR Imager, a voltage is applied to the plate electrodes which cause the labels bound to the electrode surface to emit light. The instrument measures intensity of the emitted light to afford a quantitative measure of the amount of phosphorylated protein present in the sample.
Cells were plated in 96-well flat bottom plates at the required density determined for each cell line and the cells were allowed to equilibrate at 37° C., 5% CO2 overnight. The following day, the cells were treated with Compound 1 over a range of concentrations for one hour in 5% CO2 at 37° C. After the incubation period, the culture medium was removed carefully with an aspirator. The plate was placed on ice and 50 μL of 1× Tris Lysis Buffer were added to each well. The plate was placed on a shaker at 4° C. for one hour to lyse the cells. At that point, the plate was either frozen at −80° C. for later analysis or immediately assayed for phosphoproteins as described below. To monitor interassay variability, Compound 1 was compared among all plates as a reference standard.
The assay plate was incubated with 150 μL of MSD Blocking Buffer for one hour with shaking at room temperature. The plates were washed 3 times with Tris Wash Buffer. Then 35 μL of cell lysate was added to the wells and incubated for one hour with shaking at room temperature. The solution was removed from the wells and the plate was washed 3 times with wash buffer. Twenty-five microliters of the appropriate antibody solution was then incubated for one hour with shaking at room temperature. The solution was removed from the wells and the plate was washed 3 times with wash buffer. Then 150 μL of 1×MSD Read Buffer T was added to each well. The plate was read on the SECTOR Imager plate reader.

GSK-3β = assay: MSD assay, GSK-3β phosphorylation in cell lysates; conditions: PC3 cell line; read-out: MSD GSK-3β
p70S6K = assay: Luminex multiplex assay, p70S6K phosphorylation in cell lysates
Source text: (§1) The multiplex Luminex assay format differs from conventional enzyme-linked immunosorbent assay (ELISA) in that the multiplex capture antibody is attached to a polystyrene bead whereas the ELISA capture antibody is attached to the microplate well. The use of the suspension bead-based technology enables the multiplexing capabilities of the Luminex assays. The xMAP® technology uses 5.6 micron polystyrene microspheres, which are internally dyed with red and infrared fluorophores of differing intensities. Each bead is given a unique number, or bead region, allowing differentiation of one bead from another. Beads covalently bound to different specific antibodies can be mixed in the same assay, utilizing a 96-well microplate format. At the completion of the sandwich immunoassay, beads can be read, using the Luminex 100™ or Luminex 200 detection system, in single-file by dual lasers for classification and quantification of each analyte. The Akt-Pathway Phospho 5-plex kit used was custom made and includes the ability to simultaneously measure p-GSK3β (S9), p-PRAS40(T246), and p-4E-BP1(T46).
(§2) Cells were plated at the required density. The cells were treated with either Compound 1 or rapamycin over a range of concentrations for 1 hour in 5% CO2 at 37° C. Compound 1 and rapamycin were used at the same concentrations as for the proliferation assay. As for the cell proliferation assay, a reference standard was included in the assay for PC3 cells and the coefficient of variation for assay of p-GSK3β(S9) was 37.8% (n=30), p-PRAS40(T246) was 27.8% (n=30) and for p4E-BP1(T46) was 13.5% (n=4). For three cell lines (HCT-116, MDA-MB-231 and HT29) in the assay for phosphorylation of GSK3β, PRAS40 and 4E-BP1, IGF-I stimulation (500 ng/mL, recombinant human IGF-I) for the last 10 min of incubation was used. The media was aspirated from the wells and the plate was placed on ice. Then 35 μL of Lysis Buffer was added to each well and incubated on ice for at least 30 minutes. During the incubation, the standard curve for each phosphoprotein was prepared. The standards provided were reconstituted and serial dilutions were prepared according to the manufacturer's instructions. At the end of the cell lysis step, […] of the lysate was transferred to a V-bottom plate and spun at 4° C. at 2000 rpm for 5 minutes. Both the 1× Luminex bead and 1× detector antibody solutions were prepared during this time. The 1× bead solution was vortexed and 25 μL was added into each well of a black round bottom plate. Then 50 μL of the 1× detector antibody was added to each well. Fifty microliters (50 μL) of the prepared standards were added to the designated wells. Then 25 μL of the assay diluent was added to each well designated for the compound-treated cell lysates. At the end of the spin, 25 μL of cell lysate was added to the corresponding wells of the black assay plate. The assay plate was covered with the white plate lid and incubated for 3 hours at room temperature on an orbital shaker.
(§3) Approximately 10-15 minutes prior to the end of the first incubation, the secondary antibody solution was prepared according to the vendor's protocol. Goat anti-rabbit R-phycoerythrin red fluorescent protein (RPE) supplied as a 10× concentrate was diluted to generate a 1× goat anti-rabbit RPE stock. The 96-well filter plate was pre-wet with 200 μL of 1× Working wash solution. At the end of the 3 hour incubation, a multichannel pipette was used to transfer the entire contents from each assay well into the wells of the filter plate. The liquid from the wells was removed by aspiration with the vacuum manifold. Then 200 μL of 1× Working wash solution was added into each well. The wash solution was aspirated using the vacuum manifold after 15-30 seconds. This wash step was repeated one time. The bottom of the plate was blotted on clean paper towels to remove residual liquid. […]

Phospho-GSK3β(S9) = assay: Luminex multiplex assay, Phospho-GSK3β(S9)
Source text: (§4) Determination of Phospho-GSK3β(S9), Phospho-PRAS40(T246) and Phospho-4E-BP1(T46) and the Effect of Compound 1 or Rapamycin.
as §1, §2, §3

Phospho-PRAS40(T246) = assay: Luminex multiplex assay, Phospho-PRAS40(T246)
Source text: as §4, §1, §2, §3

[1] = Homo sapiens, HCT-116, HCT116 cell line, IGF, read-out: Luminex p70S6K (IGF)
[2] = Homo sapiens, U-87 MG, U87MG cell line, read-out: Luminex p70S6K
[3] = Homo sapiens, U-87 MG, U87MG cell line, read-out: Luminex GSK-3β
[4] = Homo sapiens, HCT-116, HCT116 cell line, IGF, read-out: Luminex PRAS40 (IGF)
[5] = Homo sapiens, U-87 MG, U87MG cell line, read-out: Luminex PRAS40
[6] = PC3 cell line, read-out: Luminex p70S6K
[7] = PC3 cell line, read-out: Luminex GSK-3β
[8] = PC3 cell line, read-out: Luminex PRAS40

SMILES	IC50 (p70S6K; [6])	IC50 (Phospho-GSK3β(S9); [7])	IC50 (Phospho-PRAS40(T246); [8])	also measured
COCCN1CC(=O)Nc2ncc(-c3ccc(-c4nc[nH]n4)nc3)nc21 [C-135]	–	–	–	IC50 (Phospho-p70S6K (T389)): > 1500 nM; IC50 (GSK-3β): > 1500 nM
COC1CCC(CN2CC(=O)Nc3ncc(-c4ccc(-c5ncn[nH]5)nc4)nc32)CC1 (stereo not shown) [C-156]	–	–	–	IC50 (Phospho-p70S6K (T389)): 10 nM
O=C1CNc2ncc(-c3ccc(-c4nc[nH]n4)nc3)nc2N1CC1CCC(O)CC1 (stereo not shown) [C-141]	–	–	–	IC50 (Phospho-p70S6K (T389)): 42 nM
Cc1cc(-c2nc[nH]n2)ncc1-c1cnc2c(n1)N(C(C)C)C(=O)CN2 [C-121]	–	–	–	IC50 (GSK-3β): 15 nM
CO[C@H]1CC[C@@H](CN2C(=O)CNc3ncc(-c4ccc(-c5nc[nH]n5)nc4)nc32)CC1 [C-165]	–	–	–	IC50 (GSK-3β): 3 nM
COC1CCC(CN2CC(=O)Nc3ncc(-c4ccc(-c5nc[nH]n5)nc4)nc32)CC1 (stereo not shown) [C-158]	–	–	–	IC50 (Phospho-p70S6K (T389)): 36 nM
CC(C)(O)c1ccc(-c2cnc3c(n2)N(CC2CCOCC2)CC(=O)N3)cn1 [A-1, 6-(6-(2-hydroxypropan-2-yl)pyridin-3-yl)-4-((tetrahydro-2H-pyran-4-yl)methyl)-3,4-dihydropyrazino[2,3-b]pyrazin-2(1H)-one]	–	–	–	IC50 (p70S6K; [1]): 2120 nM; IC50 (p70S6K; [2]): 526 nM; IC50 (Phospho-GSK3β(S9); Homo sapiens, HCT-116, HCT116 cell line, IGF, read-out: Luminex GSK-3β (IGF)): 1740 nM; IC50 (Phospho-GSK3β(S9); [3]): 1220 nM; IC50 (Phospho-PRAS40(T246); [4]): 2610 nM; IC50 (Phospho-PRAS40(T246); [5]): 1660 nM
CCn1c(=O)[nH]c2ncc(-c3ccc(-c4nc[nH]n4)c(F)c3C)nc21 [A-7, 1-ethyl-6-(3-fluoro-2-methyl-4-(1H-1,2,4-triazol-3-yl)phenyl)-1H-imidazo[4,5-b]pyrazin-2(3H)-one]	–	–	–	IC50 (p70S6K; [1]): 470 nM; IC50 (p70S6K; [2]): 145 nM; IC50 (Phospho-GSK3β(S9); [3]): > 5000 nM; IC50 (Phospho-PRAS40(T246); [4]): 1020 nM; IC50 (Phospho-PRAS40(T246); [5]): 2850 nM
CO[C@H]1CC[C@H](CN2CC(=O)Nc3ncc(-c4ccc(C(C)(C)O)nc4)nc32)C1 [C-26]	104 nM	1430 nM	498 nM	–
COC1CCC(CN2CC(=O)Nc3ncc(-c4ccc(C(C)(C)O)nc4)nc32)C1 (stereo not shown) [C-22]	86 nM	2980 nM	1140 nM	–
O=C1CN(CCC2CCOCC2)c2nc(-c3cccc(-c4ncn[nH]4)c3)cnc2N1 [C-87]	910 nM	> 1500 nM	> 1500 nM	–
CO[C@H]1CC[C@H](N2CC(=O)Nc3ncc(-c4ccc(C(C)(C)O)nc4)nc32)CC1 [C-8]	116 nM	627 nM	688 nM	–
NC(=O)c1cccc(-c2cnc3c(n2)N(CCC2CCOCC2)CC(=O)N3)c1 [C-84]	> 1500 nM	> 1500 nM	> 1500 nM	–
CO[C@H]1CC[C@H](N2CC(=O)Nc3ncc(-c4ccc(C(C)(C)O)nc4)nc32)C1 [C-24]	843 nM	> 5000 nM	3660 nM	–
Cc1cc(-c2nnc[nH]2)ccc1-c1cnc2c(n1)N(Cc1ccccc1)C(=O)CN2 [C-31]	2 nM	> 5000 nM	14 nM	–
COC1CCC(N2C(=O)CNc3ncc(-c4ccc(-c5nnc[nH]5)nc4C)nc32)C1 (stereo not shown) [C-59]	28 nM	126 nM	99 nM	–
COCCN1C(=O)CNc2ncc(-c3ccc(-c4nnc[nH]4)c(F)c3)nc21 [C-27]	8 nM	32 nM	27 nM	–
Cc1cc(-c2nc[nH]n2)c(F)cc1-c1cnc2c(n1)N(CC1CCC(O)CC1)CC(=O)N2 (stereo not shown) [C-157]	–	–	–	IC50 (Phospho-p70S6K (T389)): 37 nM
COC1CCC(N2CC(=O)Nc3ncc(-c4ccc(C(C)(C)O)nc4)nc32)C1 (stereo not shown) [C-29]	235 nM	> 5000 nM	2130 nM	–
COCCN1CC(=O)Nc2ncc(-c3cnc(C(N)=O)cc3C)nc21 [C-86]	310 nM	939 nM	> 1500 nM	–
COC1CCC(N2C(=O)CNc3ncc(-c4ccc(C(C)(C)O)nc4)nc32)C1 (stereo not shown) [C-78]	1290 nM	> 1500 nM	> 1500 nM	–
COC1CCC(N2C(=O)CNc3ncc(-c4ccc(C(C)(C)O)cc4)nc32)CC1 (stereo not shown) [C-48]	80 nM	502 nM	415 nM	–
O=C1CNc2ncc(-c3ccc4[nH]ncc4c3)nc2N1CCC1CCOCC1 [C-62]	33 nM	568 nM	349 nM	–
CO[C@H]1CC[C@H](N2CC(=O)Nc3ncc(-c4ccc(C(C)(C)O)nc4)nc32)CC1 [A-3, 6-(6-(2-hydroxypropan-2-yl)pyridin-3-yl)-4-((1r,4r)-4-methoxycyclohexyl)-3,4-dihydropyrazino[2,3-b]pyrazin-2(1H)-one]	–	–	–	IC50 (p70S6K; HCT116 cell line, IGF, read-out: Luminex p70S6K (IGF)): 1820 nM; IC50 (p70S6K; U87MG cell line, read-out: Luminex p70S6K): 435 nM; IC50 (Phospho-GSK3β(S9); HCT116 cell line, IGF, read-out: Luminex GSK-3β (IGF)): 1290 nM; IC50 (Phospho-GSK3β(S9); U87MG cell line, read-out: Luminex GSK-3β): 1470 nM; IC50 (Phospho-PRAS40(T246); HCT116 cell line, IGF, read-out: Luminex PRAS40 (IGF)): 1370 nM; IC50 (Phospho-PRAS40(T246); U87MG cell line, read-out: Luminex PRAS40): 1160 nM
CO[C@H]1CC[C@@H](N2C(=O)CNc3ncc(-c4ccc(-c5nnc[nH]5)nc4C)nc32)C1 [C-57]	6 nM	170 nM	123 nM	–
CC(C)(O)c1ccc(-c2cnc3[nH]c(=O)n(CC4CCCCC4)c3n2)cc1 [C-1]	557 nM	> 1500 nM	> 1500 nM	–
O=C1CNc2ncc(-c3cnc4nc[nH]c4c3)nc2N1CCC1CCOCC1 [C-67]	> 1500 nM	> 1500 nM	> 1500 nM	–
COc1ccc(-c2cnc3c(n2)N(CCC2CCOCC2)C(=O)CN3)cn1 [C-105]	252 nM	> 1500 nM	> 1500 nM	–
O=C1CN(CCC2CCOCC2)c2nc(-c3ccc(-c4nnc[nH]4)c(F)c3)cnc2N1 [C-18]	4 nM	37 nM	27 nM	–
